Experimental data as given in patent US20250057866A1, “A SYNERGISTIC PHARMACEUTICAL COMPOSITION AND ITS ANTIVIRAL USE” (priority 2022, published 2025).
Like-named read-outs stand apart in the source and are kept apart here.

System: virus (0.01 MOI) in Vero-E6 cells
Assay: In vitro antiviral activity EC50 assay (CCK8, 48 h, 0.01 MOI virus in Vero-E6 cells)
Type: cell-based
Conditions: combination mol./mol.=1/1, combined total concentration
Protocol: • 1) Vero-E6 cells were digested and passaged. The cells were adjusted to a density of 1×10^5 cells/mL with DMEM containing 10% FBS, then seeded in a 96-well plate (100 μl/well), and incubated in a 35° C., 6% CO2 incubator for 20 h; • 2) Compound 1 and Compound 2 (mol./mol.=1/1) were diluted with DMEM containing 1% FBS to provide compositions with combined total concentrations (Compound 1+Compound 2) of 200 μM, 60 μM, 20 μM, 6 μM, 2 μM, 0.6 μM, 0.2 μM, 0.06 μM, and 0.02 μM; • 3) The culture medium in each well was removed, and the 96-well plate was marked on its lid, washed three times with 1×PBS, and 100 μL of dilutions of the compositions prepared above was added to each well, followed by 100 μL of a 0.01 multiplicity of infection (MOI) virus solution, so as to obtain final combined total concentrations of the compounds (Compound 1+Compound 2) at 100 μM, 30 μM, 10 μM, 3 μM, 1 μM, 0.3 μM, 0.1 μM, 0.03 μM, 0.01 μM. The 96-well plate, including a cell control group and a virus control group, was then incubated in a 35° C., 6% CO2 incubator; • 4) After 48 h, the cell viability was tested with a CCK8 kit.

SMILES	EC50 (Vero C1008, 48 h) [nM]	EC50 (read-out: EC50) [nM]
[2H]C(OC(=O)C(C)C)[C@H]1O[C@@H](n2ccc(NO)nc2=O)[C@H](O)[C@@H]1O (stereo partly drawn) [Compound 2, ((2R, 3S, 4R, 5R)-3,4-dihydroxy-5-(4-(hydroxylamino)-2-oxopyrimidin-1 (2H)-yl)tetrahydrofuran-2-yl) deuterated methyl isobutyl ester]	1560	1720 ± 585
[2H]C1([2H])C[C@@H](C[C@@H](C#N)NC(=O)[C@@H]2[C@@H]3[C@H](CN2C(=O)[C@@H](NC(=O)C(F)(F)F)C(C)(C)C)C3(C)C)C(=O)N1 [Compound 1]	1720	1560 ± 576
